Legend:
CDK1/cyclinB = CDK1/cyclinB (Homo sapiens, UniProt P06493); experiment: Kinase counter-screen, Ki; assay type: biochemical; conditions: apparent Ki
Source text: (§6) The ATP concentrations were approximately equal to the Km in all assays.

[1] = tested on: RKO MEK1 (Q56P/+) Clone 2; experiment: Single agent proliferation assay (CellTiter-Glo, 96 h); assay type: cell-based; conditions: RKO MEK1 Q56P/+ Cl.2
Procedure: (§1) For assessment of drug sensitivity in cell-line models of acquired resistance, drug sensitivity of dose-escalated A375 cells and isogenic RKO cells was assessed in 96-hour proliferation assays. […] For the A375 assays Alamar blue (ThermoFisher) 10% (v/v) was added and incubated for 4 h, and fluorescent product was then detected using a BMG FLUOstar.
(§2) RKO MEK1 Q56P Isogenic cells were produced by Horizon Discovery (Cambridge, UK; #HD 106-019) using a recombinant AAV-mediated gene targeting strategy. Briefly, rAAV virus was generated following transfection of the appropriate targeting vector and helper vectors in HEK293T cells, purified using an AAV purification kit (Virapur, San Diego, USA) and titrated using qPCR. Parental homozygous RKO cells (homozygous wild type for MEK1) were then infected with rAAV virus and clones that had integrated the selection cassette were identified by G418 selection and expanded. Correctly targeted clones that were heterozygous for knock-in of the MEK1 Q56P point mutation into a single allele were identified by PCR and sequencing.
(§3) Compounds were prepared from DMSO stocks to give the desired final concentrations. The final DMSO concentration was constant at 0.1%. […] CellTiter-Glo® reagent (Promega, Madison, Wis.) was added according to manufacturer's instructions and luminescence detected using the BMG FLUOstar plate reader (BMG Labtech, Ortenberg, Germany).

[2] = tested on: RKO MEK1 (Q56P/+) Clone 1; experiment: as above; assay type: cell-based; conditions: RKO MEK1 Q56P/+ Cl.1
Procedure: as §1, §2, §3

RKO Parental = experiment: as above; assay type: cell-based
Procedure: as §1, §3

JNK2α = JNK2α (Homo sapiens, UniProt P45984); experiment: Kinase counter-screen, Ki; assay type: biochemical; conditions: apparent Ki
Sequence of JNK2α (P45984 whole entry): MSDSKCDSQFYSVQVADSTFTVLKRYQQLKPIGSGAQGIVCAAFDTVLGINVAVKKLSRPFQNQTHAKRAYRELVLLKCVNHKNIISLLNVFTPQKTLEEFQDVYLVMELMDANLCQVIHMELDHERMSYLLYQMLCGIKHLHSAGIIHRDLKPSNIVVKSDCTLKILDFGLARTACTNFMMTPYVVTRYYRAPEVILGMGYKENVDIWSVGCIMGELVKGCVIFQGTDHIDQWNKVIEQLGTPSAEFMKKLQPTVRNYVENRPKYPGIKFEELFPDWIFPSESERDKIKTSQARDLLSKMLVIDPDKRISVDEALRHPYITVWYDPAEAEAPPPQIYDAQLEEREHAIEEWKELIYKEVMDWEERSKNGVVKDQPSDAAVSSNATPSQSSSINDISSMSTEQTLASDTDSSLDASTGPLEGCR
Source text: as §6

HCT116 = experiment: Reverse Phase Protein Analysis (RPPA); assay type: cell-based, human; conditions: % change from DMSO (matched cell line)
Procedure: (§4) Control wells were treated with DMSO at 0.1% (v/v) for 6 hours prior to cell lysate generation. Samples were then analyzed using reverse-phase protein microarray technology (Theranostics Health).
(§5) Cell lines with common alterations in BRAF and RAS were assayed: BRAF^V600E mutant lines A375, Colo205, and HT29; KRAS^G12C-mutant cell line MIAPACa-2; KRAS^G13D-mutant cell line HCT116; and AN3Ca with atypical HRAS^F82L mutation. Changes in protein levels are shown as a percentage change from dimethyl sulfoxide (DMSO)-treated parental control (FIG. 32A and Table 23).

A375 = experiment: Reverse Phase Protein Analysis (RPPA); assay type: cell-based, human; conditions: % change from DMSO (matched cell line)
Procedure: as §4, §5

Sequence of CDK1/cyclinB (P06493 whole entry, species assumed): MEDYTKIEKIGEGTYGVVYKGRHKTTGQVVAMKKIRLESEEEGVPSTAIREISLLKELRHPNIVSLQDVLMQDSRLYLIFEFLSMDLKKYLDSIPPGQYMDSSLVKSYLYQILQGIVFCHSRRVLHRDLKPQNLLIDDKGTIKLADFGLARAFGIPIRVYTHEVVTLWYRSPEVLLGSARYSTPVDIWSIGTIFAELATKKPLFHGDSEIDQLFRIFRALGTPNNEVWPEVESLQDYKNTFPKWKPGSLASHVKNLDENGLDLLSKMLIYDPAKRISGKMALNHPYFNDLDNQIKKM
Sequence of CDK1/cyclinB (P14635 whole entry partner, species assumed): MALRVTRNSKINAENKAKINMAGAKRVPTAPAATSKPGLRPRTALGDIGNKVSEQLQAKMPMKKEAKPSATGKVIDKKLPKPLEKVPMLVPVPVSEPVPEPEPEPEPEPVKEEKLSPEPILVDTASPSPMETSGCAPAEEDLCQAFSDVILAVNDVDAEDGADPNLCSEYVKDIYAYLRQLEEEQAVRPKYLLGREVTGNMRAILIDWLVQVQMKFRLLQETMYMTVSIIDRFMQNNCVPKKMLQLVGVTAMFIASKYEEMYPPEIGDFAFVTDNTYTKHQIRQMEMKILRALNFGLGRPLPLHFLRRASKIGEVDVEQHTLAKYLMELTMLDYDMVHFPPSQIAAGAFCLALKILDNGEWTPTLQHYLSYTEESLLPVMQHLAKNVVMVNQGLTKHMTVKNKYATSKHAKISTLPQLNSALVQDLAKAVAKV

SMILES: CC(C)Nc1cc(-c2c[nH]c(C(=O)N[C@H](CO)c3cccc(Cl)c3)c2)c(Cl)cn1 [BVD-523]
- Ki (CDK1/cyclinB): 70 nM
- IC50 [1]: 180 nM
- IC50 [2]: 170 nM
- IC50 (RKO Parental): 200 nM
- Ki (JNK2α): 650 nM
- Avg (4ebp1 T70) (HCT116): 4.03%
- Avg (Akt S473) (HCT116): −6.14%
- Avg (Akt) (HCT116): 4.41%
- Avg (Bad S136) (HCT116): −11.49%
- Avg (Bad S155) (HCT116): −30.72%
- Avg (Bak) (HCT116): −13.16%
- Avg (Bax) (HCT116): −0.8%
- Avg (Bcl 2) (HCT116): −3.59%
- Avg (Bcl2 S70) (HCT116): −8.23%
- Avg (Bcl 2 T56) (HCT116): −8.36%
- Avg (Bim) (HCT116): 12.44%
- Avg (CREB S133) (HCT116): −30.64%
- Avg (Caspase 3 CL D175) (HCT116): −10.11%
- Avg (Caspase 7 Cl D198) (HCT116): −21.09%
- Avg (Chk1) (HCT116): −11.26%
- Avg (Chk1 S345) (HCT116): −39.65%
- Avg (Cyclin D1) (HCT116): −69.62%
- Avg (ERK 1 2) (HCT116): −29.42%
- Avg (ERK 1 2 T202 Y204) (HCT116): 849.12%
- Avg (MAK1 S360) (HCT116): −13.45%
- Avg (Mcl1) (HCT116): −8.72%
- Avg (Raptor S792) (HCT116): −22.04%
- Avg (Raptor) (HCT116): −7.06%
- Avg (Rictor) (HCT116): −13.05%
- Avg (Stat1) (HCT116): −13.76%
- Avg (Stat3) (HCT116): −5.52%
- Avg (bad S112) (HCT116): −34.27%
- Avg (c Fos) (HCT116): −14.08%
- Avg (c Myc) (HCT116): −11.15%
- Avg (mTOR S2448) (HCT116): −12.78%
- Avg (mTOR S2481) (HCT116): −34.09%
- Avg (mTOR) (HCT116): −11.96%
- Avg (p70 S6 Kinase) (HCT116): −12.86%
- Avg (p90 RSK S380) (HCT116): −31.81%
- Avg(S6 Ribo Prot S235 236) (HCT116): −96.31%
- Avg(S6 Ribo Prot S240 244) (HCT116): −96.26%
- Avg(Tuberin TSC2 Y1571) (HCT116): −29.89%
- Avg(p70 S6 Kinase S371 S394) (HCT116): −16.9%
- Avg(p70 S6 Kinase T389 T412) (HCT116): −28.11%
- Avg (4ebp1 T70) (A375): −31.82%
- Avg (Akt S473) (A375): 73.07%
- Avg (Akt) (A375): −14.03%
- Avg (Bad S136) (A375): 12.31%
- Avg (Bad S155) (A375): −21.9%
- Avg (Bak) (A375): −3.26%
- Avg (Bax) (A375): −6.98%
- Avg (Bcl 2) (A375): −12.55%
- Avg (Bcl2 S70) (A375): −7.91%
- Avg (Bcl 2 T56) (A375): −8.54%
- Avg (Bim) (A375): 14.57%
- Avg (CREB S133) (A375): −12.65%
- Avg (Caspase 3 CL D175) (A375): −8.06%
- Avg (Caspase 7 Cl D198) (A375): 3.18%
- Avg (Chk1) (A375): 16.94%
- Avg (Chk1 S345) (A375): −7.43%
- Avg (Cyclin D1) (A375): −81.45%
- Avg (ERK 1 2) (A375): −22.91%
- Avg (ERK 1 2 T202 Y204) (A375): 43.34%
- Avg (MAK1 S360) (A375): 3.35%
- Avg (Mcl1) (A375): 10.67%
- Avg (Raptor S792) (A375): −10.33%
- Avg (Raptor) (A375): −7.77%
- Avg (Rictor) (A375): −20.11%
- Avg (Stat1) (A375): 1.32%
- Avg (Stat3) (A375): 6.02%
- Avg (bad S112) (A375): −72.37%
- Avg (c Fos) (A375): 4.39%
- Avg (c Myc) (A375): 2.56%
- Avg (mTOR S2448) (A375): −27.87%
- Avg (mTOR S2481) (A375): −3.36%
- Avg (mTOR) (A375): 0.2%
- Avg (p70 S6 Kinase) (A375): −7.6%
- Avg (p90 RSK S380) (A375): −71%
- Avg(S6 Ribo Prot S235 236) (A375): −95.3%
- Avg(S6 Ribo Prot S240 244) (A375): −91.98%
- Avg(Tuberin TSC2 Y1571) (A375): −6.32%
- Avg(p70 S6 Kinase S371 S394) (A375): −8.58%
- Avg(p70 S6 Kinase T389 T412) (A375): −23.79%
